Measured values reported in patent publication US20100015240A1, “PROCESS FOR PREPARING MICROPARTICLES CONTAINING BIOACTIVE PEPTIDES” (priority 2008, published 2010).

Test: Peptide solubility in polyols estimated by visual observation of solutions
Format: physicochemical
Conditions: solvent propylene glycol
Source text: Solubilities at various concentration ranges were estimated based on visual observations of solutions prepared at the indicated peptide concentration levels listed in Table II.

Measured: Peptide solubility at specified concentration level

C[C@@H](O)[C@@H]1NC(=O)[C@H](CCCCN)NC(=O)[C@@H](Cc2c[nH]c3ccccc23)NC(=O)[C@H](Cc2ccccc2)NC(=O)[C@@H](NC(=O)[C@H](N)Cc2ccccc2)CSSC[C@@H](C(=O)N[C@H](CO)[C@@H](C)O)NC1=O [Octreotide]
Soluble: 100 mg/mL | <10 mg/mL | at 10 mg/mL
